Patent publication US20240174690A1, “ANNULATED 2-AMINO-3-CYANO THIOPHENES AND DERIVATIVES FOR THE TREATMENT OF CANCER” (BOEHRINGER INGELHEIM INTERNATIONAL GMBH, priority 2021, published 2024)

How the values were obtained:
SAS cells = assay: SAS CTG proliferation assay (120 h) (HNSCC, wt amplified); type: cell-based
Procedure, shortened: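 SAS cells plated at 300 per well in DMEM:F12 with 10% FCS and left overnight, then given compounds acoustically. After 120 h exposure, viability read by CellTiter-Glo as percent of DMSO control. IC50 from four-parameter non-linear regression.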

KRAS (G12D)::SOS1 = KRAS (G12D)::SOS1 (Homo sapiens (Human), UniProt P01116, G12D); assay: KRAS::SOS1 AlphaScreen binding assay, KRAS G12D
Procedure, shortened: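 Compounds (up to 100 μM, eleven fivefold dilutions in duplicate) were incubated 30 min with KRAS 1-169 (10 nM, or 7.5 nM for G12C), GST-SOS1 564-1049 (5 nM for G12D/G12C, 10 nM for others) and 10 μM GDP in PBS buffer with BSA and Tween. Donor/acceptor beads were then added for 60 min at room temperature, and IC50 came from a 4-parameter fit of the AlphaScreen signal.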

LOVO cells = assay: LOVO CTG proliferation assay (120 h) (CRC, G13D); type: cell-based; settings: Homo sapiens, CTG 120 h
Procedure, shortened: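 LOVO cells, 1000 per well in DMEM + 10% FCS, were plated overnight and then dosed with compound from DMSO stock. After 120 h at 37 °C, viability was read by CellTiter-Glo luminescence as a percentage of DMSO controls. IC50 was derived by four-parameter non-linear regression.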

Chain of KRAS (G12D)::SOS1 (P01116 other isoform, or with tags, fused parts or gaps G12D): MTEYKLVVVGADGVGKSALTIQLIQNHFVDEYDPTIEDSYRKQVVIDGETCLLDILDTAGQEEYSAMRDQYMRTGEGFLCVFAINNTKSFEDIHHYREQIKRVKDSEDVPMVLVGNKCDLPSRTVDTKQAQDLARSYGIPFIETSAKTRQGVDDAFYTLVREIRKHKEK

Structure (SMILES) | IC50 (SAS cells) | IC50 (KRAS (G12D)::SOS1) | IC50 (LOVO cells)
C[C@H](Oc1cc(-n2ccnn2)nc(-c2onc3c2CCC[C@@]32CCCc3sc(N)c(C#N)c32)n1)[C@@H]1CCCN1C [I-32] | 52 nM | 2 nM | 159 nM
C[C@H](Oc1cc(N2CCN(C)C3(COC3)C2)nc(-c2noc3c2CCC[C@@]32CCCc3sc(N)c(C#N)c32)n1)[C@@H]1CCCN1C [II-13] | 450 nM | 1 nM | 61 nM
C[C@H]1CN(C)CCCN1c1cc(N2CCN(C)CC2)nc(-c2noc3c2CCC[C@@]32CCCc3sc(N)c(C#N)c32)n1 [II-30] | 10600 nM | 4 nM | > 25000 nM
C[C@@H]1CN(c2cc(O[C@@H](C)[C@@H]3CCCN3C)nc(-c3noc4c3CCC[C@@]43CCCc4sc(N)c(C#N)c43)n2)C[C@H](C)N1 [II-36] | 179 nM | 1 nM | 16600 nM
Cc1nc(-c2cc(O[C@@H](C)[C@@H]3CCCN3C)nc(-c3onc4c3CCC[C@@]43CCCc4sc(N)c(C#N)c43)n2)cs1 [I-24] | 77 nM | 2 nM | 101 nM
CN[C@H]1CCN(c2cc(O[C@@H](C)[C@@H]3CCCN3C)nc(-c3noc4c3CCC[C@@]43CCCc4sc(N)c(C#N)c43)n2)C1 [II-35] | 4730 nM | 2 nM | 1690 nM
C[C@H](Oc1cc(-c2ccn(CC(C)(C)O)n2)nc(-c2onc3c2CCC[C@@]32CCCc3sc(N)c(C#N)c32)n1)[C@@H]1CCCN1C [I-26] | 89 nM | 3 nM | 281 nM
C[C@H](Oc1cc(N2CCNCC2)nc(-c2noc3c2CCC[C@@]32CCCc3sc(N)c(C#N)c32)n1)[C@@H]1CCCN1C [II-45] | 530 nM | 1 nM | 6600 nM
C[C@@H]1CN(c2cc(O[C@@H](C)[C@@H]3C[C@@H](F)CN3C)nc(-c3noc4c3CCC[C@@]43CCCc4sc(N)c(C#N)c43)n2)CC2(CC2)N1 [II-17] | 1030 nM | 2 nM | 186 nM
CCOC(=O)c1ccn(-c2cc(O[C@@H](C)[C@@H]3CCCN3C)nc(-c3noc4c3CCC[C@@]43CCCc4sc(N)c(C#N)c43)n2)n1 [II-23] | 222 nM | 2 nM | 124 nM
C[C@H](Oc1cc(N2CCNC3(CCCC3)C2)nc(-c2noc3c2CCC[C@@]32CCCc3sc(N)c(C#N)c32)n1)[C@@H]1CCCN1C [II-41] | 2110 nM | 1 nM | 703 nM
C[C@H](Oc1cc(N2CCN(CCO)CC2)nc(-c2noc3c2CCC[C@@]32CCCc3sc(N)c(C#N)c32)n1)[C@@H]1CCCN1C [II-8] | 534 nM | 1 nM | 680 nM
C[C@H](Oc1cc(-n2ccc(C(N)=O)n2)nc(-c2noc3c2CCC[C@@]32CCCc3sc(N)c(C#N)c32)n1)[C@@H]1CCCN1C [II-21] | 35 nM | 2 nM | 29 nM
C[C@H](Oc1cc(-n2ccc(C(=O)NC3(C)COC3)n2)nc(-c2noc3c2CCC[C@@]32CCCc3sc(N)c(C#N)c32)n1)[C@@H]1CCCN1C [II-26] | 5 nM | 2 nM | 109 nM
C[C@H](Oc1cc(N2CCN(C)CC2)nc(-c2noc3c2CCC[C@@]32CCCc3sc(N)c(C#N)c32)n1)[C@@H]1CCCN1[C@@H]1CCOC1 [II-39] | 2940 nM | 1 nM | 2920 nM
C[C@H](Oc1cc(N2C[C@@H](N(C)C)[C@@H](F)C2)nc(-c2noc3c2CCC[C@@]32CCCc3sc(N)c(C#N)c32)n1)[C@@H]1CCCN1C [II-11] | 1320 nM | 1 nM | 383 nM
C[C@H](Oc1cc(N2C[C@H](C)NC3(CC3)C2)nc(-c2noc3c2CCC[C@@]32CCCc3sc(N)c(C#N)c32)n1)[C@@H]1C[C@@H](F)CN1C [II-18] | 293 nM | 2 nM | 49 nM
C[C@H](Oc1cc(N2CC[C@@H](N(C)C)C2)nc(-c2noc3c2CCC[C@@]32CCCc3sc(N)c(C#N)c32)n1)[C@@H]1CCCN1C [II-47] | 2620 nM | 1 nM | 459 nM
CO[C@H]1CCN(C)[C@@H]1[C@H](C)Oc1cc(-n2ccc(C(=O)N[C@H]3CCOC3)n2)nc(-c2onc3c2CCC[C@@]32CCCc3sc(N)c(C#N)c32)n1 [I-54] | 17 nM | 1 nM | 32 nM

Structure (SMILES) | IC50 (SAS cells) | IC50 (KRAS (G12D)::SOS1) | IC50 (LOVO cells)
C[C@H](Oc1cc(N2C[C@H]3CN(C)C[C@H]3C2)nc(-c2noc3c2CCC[C@@]32CCCc3sc(N)c(C#N)c32)n1)[C@@H]1CCCN1C [II-33] | 597 nM | 2 nM | 737 nM
C[C@H](Oc1cc(N2CC[C@H](N3CCCC3)C2)nc(-c2noc3c2CCC[C@@]32CCCc3sc(N)c(C#N)c32)n1)[C@@H]1CCCN1C [II-14] | 1670 nM | 1 nM | 674 nM
C[C@H](Oc1cc(-c2ccn3ncnc3c2)nc(-c2onc3c2CCC[C@@]32CCCc3sc(N)c(C#N)c32)n1)[C@@H]1CCCN1C [I-33] | 81 nM | 6 nM | 574 nM
C[C@H](Oc1cc(-n2ccc(C(=O)N3CCCC3)n2)nc(-c2noc3c2CCC[C@@]32CCCc3sc(N)c(C#N)c32)n1)[C@@H]1CCCN1C [II-19] | 132 nM | 1 nM | 21 nM
C[C@H](Oc1cc(-c2ccn(C3COC3)n2)nc(-c2onc3c2CCC[C@@]32CCCc3sc(N)c(C#N)c32)n1)[C@@H]1CCCN1C [I-34] | 185 nM | 4 nM | 161 nM
C[C@H](Oc1cc(-n2ccnc2)nc(-c2onc3c2CCC[C@@]32CCCc3sc(N)c(C#N)c32)n1)[C@@H]1CCCN1C [I-20] | 35 nM | 2 nM | 298 nM
C[C@H](Oc1cc(Cl)nc(-c2onc3c2CCC[C@@]32CCCc3sc(N)c(C#N)c32)n1)[C@@H]1CCCN1C [I-1] | 2880 nM | 3 nM | 1270 nM
C[C@H](Oc1cc(N2C[C@H](C)N(C)[C@@H](C)C2)nc(-c2onc3c2CCC[C@@]32CCCc3sc(N)c(C#N)c32)n1)[C@@H]1CCCN1C [I-43] | 1800 nM | 1 nM | 554 nM
C[C@H](Oc1cc([C@@H]2CCN(C)C2)nc(-c2noc3c2CCC[C@@]32CCCc3sc(N)c(C#N)c32)n1)[C@@H]1CCCN1C [II-37] | 1250 nM | 1 nM | 692 nM
C[C@H](Oc1cc(N2CCN(C)C3(CC3)C2)nc(-c2onc3c2CCC[C@@]32CCCc3sc(N)c(C#N)c32)n1)[C@@H]1C[C@@H](F)CN1C [I-39] | 1200 nM | 1 nM | 354 nM
C[C@H](Oc1cc(N2CC3CCC(C2)N3)nc(-c2noc3c2CCC[C@@]32CCCc3sc(N)c(C#N)c32)n1)[C@@H]1CCCN1C [II-34] | 1950 nM | 1 nM | 2400 nM
CO[C@@H]1C[C@@H]([C@H](C)Oc2cc(N3CCN(C)C4(CC4)C3)nc(-c3onc4c3CCC[C@@]43CCCc4sc(N)c(C#N)c43)n2)N(C)C1 [I-50] | 2900 nM | 1 nM | 439 nM
C[C@H](Oc1cc(N2CC[C@H](N(C)C)C2)nc(-c2noc3c2CCC[C@@]32CCCc3sc(N)c(C#N)c32)n1)[C@@H]1C[C@@H](F)CN1C [II-15] | 1300 nM | 1 nM | 867 nM
C[C@H](Oc1cc([C@@H]2CCOC2)nc(-c2onc3c2CCC[C@@]32CCCc3sc(N)c(C#N)c32)n1)[C@@H]1CCCN1C [I-22] | 33 nM | 1 nM | 31 nM
CO[C@H]1CCN(C)[C@@H]1[C@H](C)Oc1cc(-n2ccc(CC(=O)NC(C)C)n2)nc(-c2onc3c2CCC[C@@]32CCCc3sc(N)c(C#N)c32)n1 [I-48] | 13 nM | 1 nM | 23 nM
COCCNC(=O)c1ccn(-c2cc(O[C@@H](C)[C@@H]3[C@@H](OC)CCN3C)nc(-c3onc4c3CCC[C@@]43CCCc4sc(N)c(C#N)c43)n2)n1 [I-55] | 10 nM | 1 nM | 39 nM
C[C@H](Oc1cc(N2CCNC3(CCC3)C2)nc(-c2noc3c2CCC[C@@]32CCCc3sc(N)c(C#N)c32)n1)[C@@H]1CCCN1C [II-40] | 979 nM | 1 nM | 508 nM
CNC(=O)c1ccn(-c2cc(O[C@@H](C)[C@@H]3CCCN3C)nc(-c3noc4c3CCC[C@@]43CCCc4sc(N)c(C#N)c43)n2)n1 [II-20] | 86 nM | 2 nM | 158 nM
